How the values were obtained:
Type in all cases: biochemical
CYP3A4 = biological target: T1, CYP3A4 (Homo sapiens, UniProt P08684); assay: Cocktail assay for CYPs in human liver microsomes: CYP3A4 (midazolam 1′-hydroxylation); settings: human liver microsomes 0.1 mg/mL, 2 μM midazolam, 10 min at 37° C., 6 concentrations up to 10 μM; read-out: IC50 (nM) CYP3A4
T1 construct: 0.1 mg/mL protein human liver microsomes (BD Gentest); tissue BD Gentest; host or cells: human liver microsomes

CYP1A2 = biological target: T2, CYP1A2 (Homo sapiens, UniProt P05177); assay: Cocktail assay for CYPs in human liver microsomes: CYP1A2 (phenacetin O-deethylation); settings: human liver microsomes 0.1 mg/mL, 10 μM phenacetin, 10 min at 37° C., 6 concentrations up to 10 μM; read-out: IC50 (nM) CYP1A2
T2 construct: 0.1 mg/mL protein human liver microsomes (BD Gentest); tissue BD Gentest; host or cells: human liver microsomes
T2 sequence (P05177 1-516): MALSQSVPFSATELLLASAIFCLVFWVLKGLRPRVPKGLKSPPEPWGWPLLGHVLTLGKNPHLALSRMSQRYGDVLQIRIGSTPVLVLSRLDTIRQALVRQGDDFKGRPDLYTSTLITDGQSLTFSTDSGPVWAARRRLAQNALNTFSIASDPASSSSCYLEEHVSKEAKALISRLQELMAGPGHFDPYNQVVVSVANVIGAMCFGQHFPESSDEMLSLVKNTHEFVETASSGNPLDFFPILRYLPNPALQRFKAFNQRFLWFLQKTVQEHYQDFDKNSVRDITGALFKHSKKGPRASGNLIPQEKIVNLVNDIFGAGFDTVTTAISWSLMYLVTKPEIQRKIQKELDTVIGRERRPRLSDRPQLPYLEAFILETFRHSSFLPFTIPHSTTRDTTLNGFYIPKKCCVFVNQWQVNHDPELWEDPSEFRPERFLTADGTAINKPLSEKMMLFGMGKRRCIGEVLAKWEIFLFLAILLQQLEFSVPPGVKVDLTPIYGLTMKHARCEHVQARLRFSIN

CYP2C9 = biological target: T3, CYP2C9 (Homo sapiens, UniProt P11712); assay: Cocktail assay for CYPs in human liver microsomes: CYP2C9 (diclofenac 4′-hydroxylation); settings: human liver microsomes 0.1 mg/mL, 5 μM diclofenac, 10 min at 37° C., 6 concentrations up to 10 μM; read-out: IC50 (nM) CYP2C9
T3 construct: 0.1 mg/mL protein human liver microsomes (BD Gentest); tissue BD Gentest; host or cells: human liver microsomes

CYP2C19 = biological target: T4, CYP2C19 (Homo sapiens, UniProt P33261); assay: Cocktail assay for CYPs in human liver microsomes: CYP2C19 (mephenytoin 4′-hydroxylation); settings: human liver microsomes 0.1 mg/mL, 30 μM mephenytoin, 10 min at 37° C., 6 concentrations up to 10 μM; read-out: IC50 (nM) CYP2C19
T4 construct: 0.1 mg/mL protein human liver microsomes (BD Gentest); tissue BD Gentest; host or cells: human liver microsomes

CYP2D6 = biological target: T5, CYP2D6 (Homo sapiens, UniProt P10635); assay: Cocktail assay for CYPs in human liver microsomes: CYP2D6 (dextromethorphan O-demethylation); settings: human liver microsomes 0.1 mg/mL, 5 μM dextromethorphan, 10 min at 37° C., 6 concentrations up to 10 μM; read-out: IC50 (nM) CYP2D6
T5 construct: 0.1 mg/mL protein human liver microsomes (BD Gentest); tissue BD Gentest; host or cells: human liver microsomes
T5 sequence (P10635 whole entry): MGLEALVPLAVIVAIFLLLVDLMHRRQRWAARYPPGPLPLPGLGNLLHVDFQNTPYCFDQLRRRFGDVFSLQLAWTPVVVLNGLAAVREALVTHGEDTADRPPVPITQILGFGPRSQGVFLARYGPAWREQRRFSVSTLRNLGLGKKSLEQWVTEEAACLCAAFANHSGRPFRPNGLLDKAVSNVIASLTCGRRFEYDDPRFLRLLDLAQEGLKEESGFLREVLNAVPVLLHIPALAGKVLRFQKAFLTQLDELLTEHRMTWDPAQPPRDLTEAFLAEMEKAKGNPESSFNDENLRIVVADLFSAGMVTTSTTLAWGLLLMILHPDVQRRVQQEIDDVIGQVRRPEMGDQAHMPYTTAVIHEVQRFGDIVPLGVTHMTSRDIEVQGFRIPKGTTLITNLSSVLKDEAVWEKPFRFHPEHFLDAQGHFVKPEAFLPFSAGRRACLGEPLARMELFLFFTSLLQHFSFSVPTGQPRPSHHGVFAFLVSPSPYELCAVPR

T1 sequence (P08684 whole entry): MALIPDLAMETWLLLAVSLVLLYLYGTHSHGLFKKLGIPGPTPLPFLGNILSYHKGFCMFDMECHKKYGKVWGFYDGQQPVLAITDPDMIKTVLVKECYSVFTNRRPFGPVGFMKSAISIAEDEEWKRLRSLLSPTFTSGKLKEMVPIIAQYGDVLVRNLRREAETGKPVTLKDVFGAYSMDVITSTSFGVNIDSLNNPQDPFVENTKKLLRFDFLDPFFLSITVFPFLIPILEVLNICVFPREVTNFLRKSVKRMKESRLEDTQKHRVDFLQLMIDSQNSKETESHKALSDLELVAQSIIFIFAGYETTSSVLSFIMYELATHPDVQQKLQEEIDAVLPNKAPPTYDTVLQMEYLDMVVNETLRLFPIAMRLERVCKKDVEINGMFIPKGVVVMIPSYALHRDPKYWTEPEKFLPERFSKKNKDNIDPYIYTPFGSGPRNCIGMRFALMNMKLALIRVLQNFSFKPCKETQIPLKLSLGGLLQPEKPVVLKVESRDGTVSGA
T3 sequence (P11712 whole entry): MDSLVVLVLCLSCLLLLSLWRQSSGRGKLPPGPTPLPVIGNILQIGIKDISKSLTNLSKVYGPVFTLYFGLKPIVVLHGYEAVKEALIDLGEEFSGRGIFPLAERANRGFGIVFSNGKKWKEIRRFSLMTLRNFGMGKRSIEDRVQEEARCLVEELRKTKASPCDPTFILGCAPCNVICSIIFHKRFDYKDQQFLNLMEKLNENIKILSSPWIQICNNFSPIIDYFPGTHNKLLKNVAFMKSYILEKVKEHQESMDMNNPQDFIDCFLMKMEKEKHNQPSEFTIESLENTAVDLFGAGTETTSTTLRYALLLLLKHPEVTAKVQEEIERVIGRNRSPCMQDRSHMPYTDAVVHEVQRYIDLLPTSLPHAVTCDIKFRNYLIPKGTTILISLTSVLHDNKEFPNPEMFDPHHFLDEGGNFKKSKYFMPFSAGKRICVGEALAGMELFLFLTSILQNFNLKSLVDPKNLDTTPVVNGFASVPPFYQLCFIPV
T4 sequence (P33261 whole entry): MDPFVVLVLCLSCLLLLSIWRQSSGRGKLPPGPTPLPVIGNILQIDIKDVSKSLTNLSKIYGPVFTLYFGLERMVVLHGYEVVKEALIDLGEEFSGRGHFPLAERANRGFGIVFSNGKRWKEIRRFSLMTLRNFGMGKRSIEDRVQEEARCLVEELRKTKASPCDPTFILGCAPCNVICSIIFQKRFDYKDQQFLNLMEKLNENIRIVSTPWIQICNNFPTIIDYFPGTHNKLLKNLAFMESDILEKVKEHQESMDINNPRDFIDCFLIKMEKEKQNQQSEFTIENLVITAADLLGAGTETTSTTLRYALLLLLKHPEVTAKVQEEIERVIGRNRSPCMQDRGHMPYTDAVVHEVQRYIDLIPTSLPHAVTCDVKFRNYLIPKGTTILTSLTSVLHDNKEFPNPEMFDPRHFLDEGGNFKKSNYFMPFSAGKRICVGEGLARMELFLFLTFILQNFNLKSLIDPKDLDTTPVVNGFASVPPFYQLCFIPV

Row | IC50 (CYP3A4) | IC50 (CYP1A2) | IC50 (CYP2C9) | IC50 (CYP2C19) | IC50 (CYP2D6) | Compound
1 | 9 nM | > 10000 nM | 6480 nM | 3360 nM | 2210 nM | CC(c1ccccc1-c1ccc(F)cc1)n1cncc1CN1CCN(C(=O)c2ccccc2)CC1 (centres unmarked) [Compound 59, (4-((1-(1-(4′-fluoro-[1,1′-biphenyl]-2-yl)ethyl)-1H-imidazol-5-yl)methyl)piperazin-1-yl)(phenyl) methanone]
2 | 5 nM | > 10000 nM | 2810 nM | 2640 nM | 2450 nM | C[C@H](c1ccc(F)cc1)n1cncc1CN1CCN(C(=O)C2(C)CC2)C(c2ccc(N(C)C)cc2)C1 (stereo partly drawn) [Compound 57, (2-(4-(dimethylamino)phenyl)-4-((1-((R)-1-(4-fluorophenyl)ethyl)-1H-imidazol-5-yl)methyl)piperazin-1-yl)(1-methylcyclopropyl) methanone]
3 | 8 nM | > 10000 nM | 4360 nM | 5380 nM | 1410 nM | Fc1ccc(CCn2cncc2CN2CCN(c3nc4ccccc4o3)CC2)cc1 [Compound 37, 2-(4-((1-(4-fluorophenethyl)-1H-imidazol-5-yl)methyl)piperazin-1-yl)benzo[d]oxazole]
4 | 18 nM | > 10000 nM | > 10000 nM | > 10000 nM | > 10000 nM | CC(C)C1(C#N)CCN(Cc2cncn2[C@H](C)c2ccc(F)cc2)CC1 [Compound 2, (R)-1-((1-(1-(4-fluorophenyl)ethyl)-1H-imidazol-5-yl)methyl)-4-isopropylpiperidine-4-carbonitrile]
5 | 46 nM | > 10000 nM | > 10000 nM | > 10000 nM | > 10000 nM | C[C@H](c1ccc(C#N)cc1)n1cncc1CN1CCN(c2ccccc2)C(C(=O)N2CCOCC2)C1 (stereo partly drawn) [Compound 46, 4-((1R)-1-(5-((3-(morpholine-4-carbonyl)-4-phenylpiperazin-1-yl)methyl)-1H-imidazol-1-yl)ethyl) benzonitrile]
6 | 27 nM | > 10000 nM | 5670 nM | 7920 nM | 4960 nM | CCCC1(C#N)CCN(Cc2cncn2[C@H](C)c2ccc(F)cc2)CC1 [Compound 6, (R)-1-((1-(1-(4-fluorophenyl)ethyl)-1H-imidazol-5-yl)methyl)-4-propylpiperidine-4-carbonitrile]
7 | 14 nM | > 10000 nM | > 10000 nM | > 10000 nM | 1170 nM | COCCN1CCN(Cc2cncn2C(C)c2ccccc2-c2ccc(F)cc2)CC1 (centres unmarked) [Compound 72, 1-((1-(1-(4′-fluoro-[1,1′-biphenyl]-2-yl)ethyl)-1H-imidazol-5-yl)methyl)-4-(2-methoxyethyl) piperazine]
8 | 23 nM | > 10000 nM | > 10000 nM | > 10000 nM | 1580 nM | C[C@H](c1ccc(C#N)cc1)n1cncc1CN1CCN(c2nc3ccccc3[nH]2)CC1 [Compound 39, (R)-4-(1-(5-((4-(1H-benzo[d]imidazol-2-yl)piperazin-1-yl)methyl)-1H-imidazol-1-yl)ethyl)benzonitrile]
9 | 20 nM | > 10000 nM | 4000 nM | 5180 nM | > 10000 nM | C[C@H](c1ccc(C#N)cc1)n1cncc1CN1CCN(c2ccccc2)C(C(=O)N2CCCCC2)C1 (single isomer, unassigned) [Compound 45b]
10 | 35 nM | > 10000 nM | 6520 nM | ≥ 10000 nM | 2090 nM | c1ccc(CCn2cncc2CN2CCN(c3nc4ccccc4o3)CC2)nc1 [Compound 33, 2-(4-((1-(2-(pyridin-2-yl)ethyl)-1H-imidazol-5-yl)methyl)piperazin-1-yl)benzo[d] oxazole]
11 | 29 nM | > 10000 nM | 5090 nM | 5840 nM | > 10000 nM | C[C@H](c1ccc(C#N)cc1)n1cncc1CN1CCN(c2ccccc2)C(C(=O)NC(C)(C)C)C1 (stereo partly drawn) [Compound 44, N-(tert-butyl)-4-((1-((R)-1-(4-cyanophenyl)ethyl)-1H-imidazol-5-yl)methyl)-1-phenylpiperazine-2-carboxamide]
12 | 26 nM | > 10000 nM | 1760 nM | 4690 nM | 3210 nM | C[C@H](c1ccc(C#N)cc1)n1cncc1CN1CCC(c2nc3ccccc3s2)CC1 [Compound 22, (R)-4-(1-(5-((4-(benzo[d]thiazol-2-yl)piperidin-1-yl)methyl)-1H-imidazol-1-yl)ethyl) benzonitrile]
13 | 31 nM | > 10000 nM | 6470 nM | 4720 nM | 3690 nM | COc1ccc2nc(N3CCN(Cc4cncn4[C@H](C)c4ccc(C#N)cc4)CC3)sc2c1 [Compound 38, (R)-4-(1-(5-((4-(6-methoxybenzo[d]thiazol-2-yl)piperazin-1-yl)methyl)-1H-imidazol-1-yl)ethyl)benzonitrile]
14 | 21 nM | > 10000 nM | > 10000 nM | > 10000 nM | 1040 nM | CC(C)OCCn1cncc1CN1CCN(c2nc3ccccc3o2)CC1 [Compound 26, 2-(4-((1-(2-isopropoxyethyl)-1H-imidazol-5-yl)methyl)piperazin-1-yl)benzo[d]oxazole]
15 | 15 nM | > 10000 nM | > 10000 nM | 5950 nM | 7680 nM | CCOC(=O)CN1CCN(Cc2cncn2C(C)c2ccccc2-c2ccc(F)cc2)CC1 (centres unmarked) [Compound 70, ethyl 2-(4-((1-(1-(4′-fluoro-[1,1′-biphenyl]-2-yl)ethyl)-1H-imidazol-5-yl)methyl)piperazin-1-yl)acetate]
16 | 7 nM | > 10000 nM | 2320 nM | 3740 nM | 2870 nM | C[C@H](c1ccc(C#N)cc1)n1cncc1CN1CCN(c2nc3ccc(F)c(F)c3o2)CC1 [Compound 31, (R)-4-(1-(5-((4-(6,7-difluorobenzo[d]oxazol-2-yl)piperazin-1-yl)methyl)-1H-imidazol-1-yl)ethyl) benzonitrile]
17 | 15 nM | 5570 nM | 3250 nM | 3740 nM | 7330 nM | C[C@H](c1ccc(F)cc1)n1cncc1CN1CCC(C#N)(C2CCCC2)CC1 [Compound 5, (R)-4-cyclopentyl-1-((1-(1-(4-fluorophenyl)ethyl)-1H-imidazol-5-yl)methyl)piperidine-4-carbonitrile]
18 | 43 nM | > 10000 nM | > 10000 nM | > 10000 nM | > 10000 nM | C[C@H](c1ccc(F)cc1)n1cncc1CN1CCN(Cc2cnc(N(C)C)s2)C(=O)C1 [Compound 66, (R)-1-((2-(dimethylamino)thiazol-5-yl)methyl)-4-((1-(1-(4-fluorophenyl)ethyl)-1H-imidazol-5-yl)methyl) piperazin-2-one]
19 | 22 nM | > 10000 nM | > 10000 nM | > 10000 nM | > 10000 nM | CC(=O)N1CCN(Cc2cncn2[C@H](C)c2ccc(F)cc2)CC1c1ccccc1 (stereo partly drawn) [Compound 51, 1-(4-((1-((R)-1-(4-fluorophenyl)ethyl)-1H-imidazol-5-yl)methyl)-2-phenylpiperazin-1-yl)ethanone]
20 | 37 nM | > 10000 nM | > 10000 nM | > 10000 nM | > 10000 nM | CC(c1ccccc1-c1ccc(F)cc1)n1cncc1CN1CCN(CCO)CC1 (centres unmarked) [Compound 71, 2-(4-((1-(1-(4′-fluoro-[1,1′-biphenyl]-2-yl)ethyl)-1H-imidazol-5-yl)methyl)piperazin-1-yl) ethanol]
21 | 21 nM | > 10000 nM | 8170 nM | > 10000 nM | 8480 nM | C[C@H](c1ccc(F)cc1)n1cncc1CN1CCC(C#N)(C2CCOCC2)CC1 [Compound 7, (R)-1-((1-(1-(4-fluorophenyl)ethyl)-1H-imidazol-5-yl)methyl)-4-(tetrahydro-2H-pyran-4-yl)piperidine-4-carbonitrile]

Row | Compound | IC50 (CYP3A4) | IC50 (CYP1A2) | IC50 (CYP2C9) | IC50 (CYP2C19) | IC50 (CYP2D6)
22 | CC(C)c1noc(C2(C)CCN(Cc3cncn3[C@H](C)c3ccc(F)cc3)CC2)n1 [Compound 11, (R)-5-(1-((1-(1-(4-fluorophenyl)ethyl)-1H-imidazol-5-yl)methyl)-4-methylpiperidin-4-yl)-3-isopropyl-1,2,4-oxadiazole] | 21 nM | 5070 nM | 2880 nM | 3310 nM | 5990 nM

From US10745377B2, “Piperidine or piperazine linked imidazole and triazole derivatives and methods of use” (MERCK SHARP & DOHME CORP., priority 2013, dated 2020)
